In PMC12052742, “Engineering a newly identified alcohol dehydrogenase from Sphingobium Sp. for efficient utilization of nicotinamide cofactors biomimetics” (Bioresources and Bioprocessing, 2025):

How the values were obtained:
Format in all cases: biochemical, Sphingobium sp. SYK-6
[1] = test system: SpADH2; assay: Preliminary evaluation of NCB usage in oxidation of syringyl alcohol (HPLC); conditions: preliminary assay: 1a 1 mM, NCB 10 mM, pH 7.0, 30℃, 1 h
Method: Sphingobium sp. SYK-6 belongs to genus Sphingomonas, and a search in UniProtKB identified 19 ADHs from this strain, including 5 PQQ-dependent and the remaining NAD^+/NADP^+-dependent enzymes. Two sequences annotated as aryl-alcohol dehydrogenases (SLG_34580 and SLG_24930) (Table. S1) were selected for heterologous expression (Fig. S1) and named SpADH1 and SpADH2, respectively. Their ability to utilize NCBs was assessed by oxidation of syringyl alcohol (1a) to produce syringaldehyde (1b) (Fig. 1a).
Fig. 1 (a) Reaction scheme of SpADH2-catalyzed oxidation of syringyl alcohol. (b) Specific activity of SpADH2 toward four NCBs. The evaluation of NCBs usage by SpADH2 was carried out under following conditions: 50 mM PBS buffer (pH 7.0) and 30℃, with 1a (1 mM) as substrate and 4 typical NCBs (10 mM) as cofactor. A total of 0.1 mg/mL enzyme was added to a 200 µL reaction mixture, and was analyzed by HPLC after 1 h reaction
Reaction samples were analyzed using Agilent 1260 Infinity II LC system under reversed phase condition. Column: Agilent C18 column. Analytical conditions for 1a and 1b: mobile phase: 50% water: 50% acetonitrile. The retention time for standard product 1b was 3.27 min, under flow rate of 1 mL·min^− 1and temperature of 30°C (Fig. S4).

[2] = test system: SpADH2; assay: Cofactor spectrum of syringyl alcohol oxidation (HPLC specific activity), WT; conditions: 1a 5 mM, cofactor 7.5 mM, pH 7.5, 30℃, 5 µg SpADH2, 1 h
Method: Fig. 2 Cofactor spectrum of syringyl alcohol oxidation catalyzed by SpADH2. The darkness of the background color for each cofactor stands for the activity of SpADH2 utilizing various cofactors. (a) NAD(P) ^+ and NMN^+ are shown in purple background. (b) tsNCBs are shown in cyan background. The evaluation of cofactor spectrum of SpADH2 was carried out under following conditions: 50 mM PBS buffer (pH 7.5) and 30℃, with 1a (5 mM) as substrate and different cofactors (7.5 mM) as cofactor. For NAD(P)^+ and NMN^+, 0.05 µg SpADH2 was added, and for tsNCBs, 5 µg SpADH2 was added. The results were analyzed by HPLC after 1 h reaction
(§1) Specific activity of SpADH2 in cofactor spectrum study was determined by HPLC analysis. PBS (pH 7.5) buffer was pre-heated at 30°C for 15 min. For NAD(P)^+ and NMN^+, 0.05 µg SpADH2 was added to PBS buffer (100 µL). For tsNCBs, 5 µg SpADH2 was added. A final concentration of 7.5 mM cofactor was added to the reaction mixture. Finally, a final concentration of 5 mM substrate was added to start the reaction. The reactions were conducted at 30°C.
(§2) One unit of enzyme activity is defined as the amount of enzyme required to form 1 µmol 1b per minute at pH 7.5 and 30°C. Same reaction without cofactor was used as a blank control.

[3] = test system: SpADH2 variant H43L; assay: Cofactor spectrum (HPLC specific activity), variant H43L; conditions: 1a 5 mM, cofactor 7.5 mM, pH 7.5, 30℃, 5 µg enzyme
Method: (§3) Fig. 8 Cofactor spectrums of SpADH2 and its variants. The darkness of color for each cofactor stands for the activity. For each cofactor cube, top left: WT, top right: H43L, bottom left: A290I, bottom right: H43L/A290I. (a) Natural cofactors and NMN^+ are shown in purple. (b) tsNCBs are shown in cyan. The evaluation of cofactor spectrum was carried out under following conditions: 50 mM PBS buffer (pH 7.5) and 30℃, with 1a (5 mM) as substrate and different cofactors (7.5 mM) as cofactor. For NAD(P)^+ and NMN^+, 0.05 µg enzyme was added, and for tsNCBs, 5 µg enzyme was added. The results were analyzed by HPLC after 1 h reaction
as §1, §2

[4] = test system: SpADH2 variant H43L/A290I; assay: Cofactor spectrum (HPLC specific activity), variant H43L/A290I; conditions: 1a 5 mM, cofactor 7.5 mM, pH 7.5, 30℃, 5 µg enzyme
Method: as §3, §1, §2

Structure (SMILES) | utilization of the NCB by SpADH2 (in words) [1] | utilization of the tsNCB by SpADH2 (in words) [2] | utilization of the tsNCB (in words) [3] | utilization of the tsNCB (in words) [4]
NC(=O)c1ccc[n+](CCc2ccccc2)c1 [P2NA^+, 3-carbamoyl-1-phenethylpyridin-1-ium] | could not be utilized | No detectable activity | exhibited activity | 
NC(=O)c1ccc[n+](CCCc2ccccc2)c1 [P3NA^+, 3-carbamoyl-1-(3-phenylpropyl)pyridin-1-ium] | could not be utilized | No detectable activity |  | acquired capability of utilizing
